Data: ChEMBL document CHEMBL3091429, “Structure-activity relationships of retro-dihydrochalcones isolated from Tacca sp” (J Nat Prod, 2013)
Active and inactive are the calls of the source. The calls are words filed in the database; no cut-off is given here.

target: Tubulin (Sus scrofa) (UniProt P02554+P02550); experiment: Inhibition of purified porcine tubulin polymerization 100 uM by spectrophotometry; assay type: protein assay
Sequence (P02550 whole entry, looked up): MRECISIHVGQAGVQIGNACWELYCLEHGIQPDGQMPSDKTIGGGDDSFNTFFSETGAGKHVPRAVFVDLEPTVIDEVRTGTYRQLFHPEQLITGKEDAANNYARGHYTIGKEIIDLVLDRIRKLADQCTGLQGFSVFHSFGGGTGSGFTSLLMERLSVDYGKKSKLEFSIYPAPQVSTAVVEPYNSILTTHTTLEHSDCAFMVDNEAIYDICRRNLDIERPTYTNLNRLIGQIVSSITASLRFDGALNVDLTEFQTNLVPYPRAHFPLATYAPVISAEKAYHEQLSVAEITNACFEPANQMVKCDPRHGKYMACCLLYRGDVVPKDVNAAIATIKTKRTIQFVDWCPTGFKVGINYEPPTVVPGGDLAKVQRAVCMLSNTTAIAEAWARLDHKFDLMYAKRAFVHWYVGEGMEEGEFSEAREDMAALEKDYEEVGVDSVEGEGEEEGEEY
Sequence (P02554 whole entry, looked up): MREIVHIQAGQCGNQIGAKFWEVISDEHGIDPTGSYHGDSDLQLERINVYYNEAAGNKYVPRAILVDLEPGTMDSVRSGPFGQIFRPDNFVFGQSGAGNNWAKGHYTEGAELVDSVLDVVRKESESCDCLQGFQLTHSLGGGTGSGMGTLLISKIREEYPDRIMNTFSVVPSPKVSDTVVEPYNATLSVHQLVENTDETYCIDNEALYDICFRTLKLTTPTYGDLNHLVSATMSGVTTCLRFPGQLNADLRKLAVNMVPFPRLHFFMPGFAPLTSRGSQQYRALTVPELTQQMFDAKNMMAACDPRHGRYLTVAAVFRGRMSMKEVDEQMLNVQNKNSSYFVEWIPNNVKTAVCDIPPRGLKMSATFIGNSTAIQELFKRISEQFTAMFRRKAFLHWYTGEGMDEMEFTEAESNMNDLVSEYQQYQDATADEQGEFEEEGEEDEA

First: COC1=CC(=O)C(CCC(=O)c2ccc3c(c2)OCO3)=C(OC)C1=O
Second: COc1cc(OC)c(CCC(=O)c2ccc(O)c(OC)c2)c(OC)c1
The inhibition of the first is higher: 40% for the first, 10% for the second.

For `COc1cc(OC)c(CCC(O)c2ccc3c(c2)OCO3)c(OC)c1` (configuration not stated), the inhibition was “Active”.
`COc1ccc(C(=O)CCc2c(OC)cc(OC)c(OC)c2OC)cc1OC` was tested, and the inhibition was “inactive”.
With `COc1cc(OC)c(CCC(=O)c2ccc(OC)c(O)c2)c(OC)c1` the inhibition was “Active”.
`COc1cc(O)c(CCC(=O)c2ccc(O)c(OC)c2)c(OC)c1` was tested, and the inhibition was “Active”.
In the case of `COC1=CC(=O)C(CCC(=O)c2ccc(OC)c(OC)c2)=C(OC)C1=O`, the inhibition is reported as “inactive”.

test system: HeLa; experiment: Antiproliferative activity against human HeLa cells by SRB assay; assay type: functional, cell-based

Going from `COC1=CC(=O)C(CCC(=O)c2ccc3c(c2)OCO3)=C(OC)C1=O` to `COc1cc(OC)c(CCC(O)c2ccc3c(c2)OCO3)c(OC)c1` (configuration not stated), the IC50 rises from 8.8 µM to over 50 µM. The first is the more potent here.

Going from `COc1cc(OC)c(CCC(=O)c2ccc(O)c(OC)c2)c(OC)c1` to `COc1cc(O)c(CCC(=O)c2ccc(O)c(OC)c2)c(OC)c1`, the IC50 rises from 28.9 µM to over 50 µM. The first is the more potent here.

`COc1ccc(C(=O)CCc2c(OC)cc(OC)c(OC)c2OC)cc1OC` was tested, and the IC50 was over 50 µM.

test system: A549; experiment: Antiproliferative activity against human A549 cells by SRB assay; assay type: functional, cell-based

Compared with `COC1=CC(=O)C(CCC(=O)c2ccc3c(c2)OCO3)=C(OC)C1=O`, `COc1cc(OC)c(CCC(O)c2ccc3c(c2)OCO3)c(OC)c1` (configuration not stated) is higher in IC50: 8.3 µM for the first, over 50 µM for the second. The first is the more potent here.

Going from `COc1cc(OC)c(CCC(=O)c2ccc(O)c(OC)c2)c(OC)c1` to `COc1cc(O)c(CCC(=O)c2ccc(O)c(OC)c2)c(OC)c1`, the IC50 rises from 40.3 µM to over 50 µM. The first is the more potent here.

Work on `COc1ccc(C(=O)CCc2c(OC)cc(OC)c(OC)c2OC)cc1OC` yielded an IC50 of over 50 µM.

test system: PC-3; experiment: Antiproliferative activity against human PC3 cells by SRB assay; assay type: functional, cell-based

First: COC1=CC(=O)C(CCC(=O)c2ccc3c(c2)OCO3)=C(OC)C1=O
Second: COc1cc(OC)c(CCC(O)c2ccc3c(c2)OCO3)c(OC)c1 (configuration not stated)
The IC50 of the first is lower: 5 µM for the first, over 50 µM for the second. The first is the more potent here.

`COc1cc(OC)c(CCC(=O)c2ccc(O)c(OC)c2)c(OC)c1` and `COc1cc(O)c(CCC(=O)c2ccc(O)c(OC)c2)c(OC)c1` cannot be ordered by IC50: over 50 µM for the first, over 50 µM for the second.

Compound `COc1ccc(C(=O)CCc2c(OC)cc(OC)c(OC)c2OC)cc1OC` has an IC50 of over 50 µM.
